Test results as given in US20050080113A1, “Medicinal compositions” (priority 2001, published 2005).

Columns and labels:
human p38 MAP kinase = target: T1, human p38 MAP kinase (Homo sapiens, UniProt Q16539); experiment: Measurement of the enzyme inhibitory activity of active form p38 MAP kinase, 32P uptake into Myelin Basic Protein (Reference Example C 1); assay type: biochemical; settings: Myelin Basic Protein substrate, 30° C., 60 minutes, read-out: IC50 (concentration necessary for inhibiting uptake of 32P into an acid insoluble fraction by 50%)
T1 construct: made in house; host or cells: Sf-21 insect cells, baculovirus (BAC-HP38 co-infected with BAC-caMKK3)
T1 sequence (Q16539 whole entry): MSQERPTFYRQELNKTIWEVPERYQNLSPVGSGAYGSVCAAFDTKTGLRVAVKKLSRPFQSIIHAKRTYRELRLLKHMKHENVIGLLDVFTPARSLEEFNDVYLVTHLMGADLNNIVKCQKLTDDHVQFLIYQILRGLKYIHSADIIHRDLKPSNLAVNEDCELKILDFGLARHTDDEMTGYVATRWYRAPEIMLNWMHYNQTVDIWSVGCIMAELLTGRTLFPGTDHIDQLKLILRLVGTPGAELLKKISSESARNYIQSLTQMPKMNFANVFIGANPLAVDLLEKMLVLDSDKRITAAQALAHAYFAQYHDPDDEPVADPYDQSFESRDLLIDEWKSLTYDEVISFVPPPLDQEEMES
Procedure: The genetic manipulations described below were according to a method described in the book (Maniatis et al., Molecular Cloning, Cold Spring Harbor Laboratory, 1989) or methods described in the protocols attached to the reagents.
(1) Cloning of Human p38 MAP Kinase Gene and Preparation of Recombinant Baculovirus
Cloning of human p38 MAP kinase gene was performed by a PCR method using a primer set P38 U: 5′-[…] 3′ [SEQ ID NO:1] and PAG-L: 5′-[…]-3′ [SEQ ID NO:2] made by the use of kidney cDNA (Toyobo, QUICK-Clone cDNA) as a template and referring to the base sequence of p38 MAP kinase gene reported by Han et al. (Science 265 (5173), 808 811 (1994)).
A PCR reaction was performed by a Hot Start method using AmpliWax PCR Gem 100 (Takara Shuzo). As the lower mixed solution, 2 μL 10×LA PCR Buffer, 3 μL 2.5 mM dNTP solution, each 2.5 μL of 12.5 μM primer solutions, and 10 μL sterile distilled water were mixed. As the upper mixed solution, 1 μL human cardiac cDNA (1 ng/mL) as a template, 3 μL 10×LA PCR Buffer, 1 μL 2.5 mM dNTP solution, 0.5 μL TaKaRa LA Taq DNA polymerase (Takara Shuzo), and 24.5 μL sterile distilled water were mixed. One AmpliWax PCR Gem 100 (Takara Shuzo) was added to the prepared lower mixed solution and the mixture was treated at 70° C. for 5 min and for 5 min in an ice and, thereafter, the upper mixed solution was added to prepare a reaction solution for PCR. […]

For CNc1nc(-c2ccc3c(c2)CCC3)c(-c2cccnc2)s1 [13-74], the IC50 (human p38 MAP kinase) was 630 nM and the melting point was 172 to 173 °C.
